Data taken from patent US10723727B2, “Tubulysin analogs and methods for their preparation” (priority 2016, dated 2020).

Assays:
[1] = target: T1, tubulin/RB3-stathmin-like-domain (RB3-SLD-tdm) complex (Sus scrofa, UniProt P02550+P02554); assay: Tubulin Peptide-Binding Site Competition Assay (fluorescence polarization); set-up: species or system Porcine; conditions: FP competition with BODIPY-labeled vinca peptide probe; read after five hours at 22° C.; read-out: Tubulin Peptide-Binding Site Competition Assay IC50
T1 construct: purchased Cytoskeleton, Inc. T240; host or cells: RB3-SLD was made in house in E. coli
In short: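 The BODIPY vinca-peptide probe was premixed with test compound and then added to porcine tubulin/RB3-SLD, at final concentrations of 3 nM probe, 6 nM tubulin and 100 nM RB3-SLD. The buffer was PIPES pH 7.0 with Tween 20, MgCl2 and EGTA, and 11-point dilutions were run in duplicate. IC50 was fitted from the fluorescence polarization decrease and converted to Ki.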

[2] = test system: N87 (gastric cancer) cells; assay: In vitro cell assay (MTS cell viability), N87; assay type: cell-based; conditions: 96 h, free compounds; 96 hours after treatment
Protocol: (§1) In Vitro Cell Assay Procedure
(§2) Target expressing (BT474 (breast cancer), N87 (gastric cancer), HCC1954 (breast cancer), MDA-MB-361-DYT2 (breast cancer)) or non-expressing (HT-29) cells were seeded in 96-well cell culture plates for 24 hours before treatment. Cells were treated with 3-fold serially diluted antibody-drug conjugates or free compounds (i. e. no antibody conjugated to the drug) in duplicate at 10 concentrations. Cell viability was determined by CellTiter 96® AQueous One Solution Cell Proliferation MTS Assay (Promega, Madison Wis.) 96 hours after treatment. Relative cell viability was determined as percentage of untreated control. IC50 values were calculated using a four parameter logistic model #203 with XLfit v4. 2 (IDBS, Guildford, Surry, UK).

[3] = test system: MDA-MB-361-DYT2 (breast cancer) cells; assay: In vitro cell assay (MTS cell viability), MDA-MB-361-DYT2; assay type: cell-based; conditions: 96 h, free compounds; 96 hours after treatment
Protocol: as §1, §2

HT-29 cells = assay: In vitro cell assay (MTS cell viability), HT-29 (target non-expressing); assay type: cell-based; conditions: Homo sapiens, HT-29, 96 h, free compounds; 96 hours after treatment; read-out: HT29 IC50
Protocol: as §1, §2

Compound | IC50 [1] [nM] | IC50 [2] [nM] | IC50 [3] [nM] | IC50 (HT-29 cells) [nM]
CC[C@H](C)[C@H](NC(=O)[C@@]1(C)CCCN1C)C(=O)N(C)[C@H](C[C@@H](O)c1nc(C(=O)N[C@@H](Cc2ccccc2)C[C@H](C)C(=O)O)cs1)C(C)C [#B15, 1,2-dimethyl-D-prolyl-N-[(1R,3R)-1-(4-{[(2R,4S)-4-carboxy-1-phenylpentan-2-yl]carbamoyl}-1,3-thiazol-2-yl)-1-hydroxy-4-methylpentan-3-yl]-N-methyl-L-isoleucinamide] | 7 | > 100 | > 100 | > 100
CC[C@H](C)[C@H](NC(=O)[C@@]1(C)CCCN1C)C(=O)N(C)[C@H](C[C@@H](OC(=O)NC)c1nc(C(=O)N[C@@H](Cc2ccc(N)cc2)C[C@H](C)C(=O)O)cs1)C(C)C [#B30, 1,2-dimethyl-D-prolyl-N-{(1R,3R)-1-(4-{[(2R,4S)-1-(4-aminophenyl)-4-carboxypentan-2-yl]carbamoyl}-1,3-thiazol-2-yl)-4-methyl-1-[(methylcarbamoyl)oxy]pentan-3-yl}-N-methyl-L-isoleucinamide] | 3.2 | 2.67 | 3.27 | 1.81
CC[C@H](C)[C@H](NC(=O)[C@@]1(C)CCCN1C)C(=O)N(C)[C@H](C[C@@H](OC(C)=O)c1nc(C(=O)N[C@@H](Cc2ccccc2)C(O)c2nccs2)cs1)C(C)C (stereo partly drawn) [#B62, 1,2-dimethyl-D-prolyl-N-[(1R,3R)-1-(acetyloxy)-1-(4-{[(2S)-1-hydroxy-3-phenyl-1-(1,3-thiazol-2-yl)propan-2-yl]carbamoyl}-1,3-thiazol-2-yl)-4-methylpentan-3-yl]-N-methyl-L-isoleucinamide] | 4.7 | 10.4 | 2.65 | 2.26
CC[C@H](C)[C@H](NC(=O)[C@@]1(C)CCCN1C)C(=O)N(C)[C@H](C[C@@H](OC(C)=O)c1nc(C(=O)NCCn2nnc3ccccc32)cs1)C(C)C [#B79, 1,2-dimethyl-D-prolyl-N-[(1R,3R)-1-(acetyloxy)-1-(4-{[2-(1H-benzotriazol-1-yl)ethyl]carbamoyl}-1,3-thiazol-2-yl)-4-methylpentan-3-yl]-N-methyl-L-isoleucinamide] | 8.6 | 11.2 | 5.69 | 4.39
CC[C@H](C)[C@H](NC(=O)[C@H](NC)C(C)C)C(=O)N(C)[C@H](C[C@@H](OC(C)=O)c1nc(C(=O)N[C@@H](Cc2ccccc2)C[C@H](C)C(=O)O)cs1)C(C)C [#B12, N-methyl-D-valyl-N-[(1R,3R)-1-(acetyloxy)-1-(4-{[(2R,4S)-4-carboxy-1-phenylpentan-2-yl]carbamoyl}-1,3-thiazol-2-yl)-4-methylpentan-3-yl]-N-methyl-L-isoleucinamide] | < 0.458 | 2.98 | 2.97 | 4.52
CC[C@H](C)[C@H](NC(=O)[C@@]1(C)CCCN1C)C(=O)N(C)[C@H](C[C@@H](OC(C)=O)c1nc(C(=O)N[C@@H](Cc2ccccc2)c2nccs2)cs1)C(C)C [#B78, 1,2-dimethyl-D-prolyl-N-[(1R,3R)-1-(acetyloxy)-4-methyl-1-(4-{[(1S)-2-phenyl-1-(1,3-thiazol-2-yl)ethyl]carbamoyl}-1,3-thiazol-2-yl)pentan-3-yl]-N-methyl-L-isoleucinamide] | 9.3 | 39.9 | 19.9 | 14.5
CC[C@H](C)[C@H](NC(=O)[C@@]1(C)CCCN1C)C(=O)N(C)[C@H](C[C@@H](OC(C)=O)c1nc(C(=O)N[C@H](CNS(C)(=O)=O)Cc2ccccc2)cs1)C(C)C [#B58, 1,2-dimethyl-D-prolyl-N-{(1R,3R)-1-(acetyloxy)-4-methyl-1-[4-({(2S)-1-[(methylsulphonyl)amino]-3-phenylpropan-2-yl}carbamoyl)-1,3-thiazol-2-yl]pentan-3-yl}-N-methyl-L-isoleucinamide] | 5 | 5.63 | 2.26 | 1.49
CC[C@H](C)[C@H](NC(=O)C12CCCC(CCC1)N2C)C(=O)N(C)[C@H](C[C@@H](OC(C)=O)c1nc(C(=O)N[C@@H](Cc2ccccc2)C[C@H](C)C(=O)OC)cs1)C(C)C [#B16, methyl (2S,4R)-4-[({2-[(1R,3R)-1-(acetyloxy)-4-methyl-3-(methyl{N-[(9-methyl-9-azabicyclo[3.3.1]non-1-yl)carbonyl]-L-isoleucyl}amino)pentyl]-1,3-thiazol-4-yl}carbonyl)amino]-2-methyl-5-phenylpentanoate] | 10.4 | < 0.042 | < 0.064 | < 0.026
CCNC(=O)O[C@H](C[C@H](C(C)C)N(C)C(=O)[C@@H](NC(=O)C12CCCC(CCC1)N2C)[C@@H](C)CC)c1nc(C(=O)N[C@@H](Cc2ccc(N)cc2)C[C@H](C)C(=O)O)cs1 [#B27, (2S,4R)-5-(4-aminophenyl)-4-{[(2-{(1R,3R)-1-[(ethylcarbamoyl)oxy]-4-methyl-3-(methyl{N-[(9-methyl-9-azabicyclo[3.3.1]non-1-yl)carbonyl]-L-isoleucyl}amino)pentyl]-1,3-thiazol-4-yl}carbonyl)amino]-2-methylpentanoic acid] | < 0.648 | 6.42 | 5.46 | 5.39
CC[C@H](C)[C@H](NC(=O)[C@@]1(C)CCCN1C)C(=O)N(C)[C@H](C[C@@H](OC(C)=O)c1nc(C(=O)N[C@@H](Cc2ccc(N)cc2)c2nccs2)cs1)C(C)C [#B80, 1,2-dimethyl-D-prolyl-N-[(1R,3R)-1-(acetyloxy)-1-(4-{[(1S)-2-(4-aminophenyl)-1-(1,3-thiazol-2-yl)ethyl]carbamoyl}-1,3-thiazol-2-yl)-4-methylpentan-3-yl]-N-methyl-L-isoleucinamide] | 6.5 | 18.5 | 4.21 | 4.63
CC[C@H](C)[C@H](NC(=O)C12CCC(CC1)N2C)C(=O)N(C)[C@H](C[C@@H](OC(C)=O)c1nc(C(=O)N[C@@H](Cc2ccccc2)C[C@H](C)C(=O)OC)cs1)C(C)C [#B13, methyl (2S,4R)-4-[({2-[(1R,3R)-1-(acetyloxy)-4-methyl-3-{methyl[(2S,3S)-3-methyl-2-{[(7-methyl-7-azabicyclo[2.2.1]hept-1-yl)carbonyl]amino}pentanoyl]amino}pentyl]-1,3-thiazol-4-yl}carbonyl)amino]-2-methyl-5-phenylpentanoate] | 3.7 | < 0.061 | < 0.036 | < 0.022
CCNC(=O)O[C@H](C[C@H](C(C)C)N(C)C(=O)[C@@H](NC(=O)[C@@]1(C)CCCN1C)[C@@H](C)CC)c1nc(C(=O)N[C@H](C(=O)OC)C(C)O)cs1 (stereo partly drawn) [#B22, 1,2-dimethyl-D-prolyl-N-{(1R,3R)-1-[(ethylcarbamoyl)oxy]-1-(4-{[(2S)-3-hydroxy-1-methoxy-1-oxobutan-2-yl]carbamoyl}-1,3-thiazol-2-yl)-4-methylpentan-3-yl]-N-methyl-L-isoleucinamide] |  | 12.1 | 11.2 | 14.4
CC[C@H](C)[C@H](NC(=O)[C@@]1(C)CCCN1C)C(=O)N(C)[C@H](C[C@H](O)c1nc(C(=O)N[C@@H](Cc2ccc(N)cc2)C[C@H](C)C(=O)O)cs1)C(C)C [#B33, 1,2-dimethyl-D-prolyl-N-{(1S,3R)-1-(4-{[(2R,4S)-1-(4-aminophenyl)-4-carboxypentan-2-yl]carbamoyl}-1,3-thiazol-2-yl)-1-hydroxy-4-methylpentan-3-yl]-N-methyl-L-isoleucinamide] |  | > 1000 | > 1000 | > 1000
CCOP(=O)(OCC)[C@@H](C)C[C@H](Cc1ccc(N)cc1)NC(=O)c1csc([C@@H](C[C@H](C(C)C)N(C)C(=O)[C@@H](NC(=O)[C@H]2CCCCN2C)[C@@H](C)CC)OC(C)=O)n1 [#B11, (1R,3R)-1-(4-{[(2S,4S)-1-(4-aminophenyl)-4-(diethoxyphosphoryl)pentan-2-yl]carbamoyl}-1,3-thiazol-2-yl)-4-methyl-3-[methyl(N-{[(2R)-1-methylpiperidin-2-yl]carbonyl}-L-isoleucyl)amino]pentyl Acetate] |  | 0.909 | 0.609 | 0.954
CCOC(=O)[C@@H](C)C[C@H](Cc1ccccc1)NC(=O)c1csc([C@@H](C[C@H](C(C)C)N(C)C(=O)[C@@H](NC(=O)[C@@]2(C)CCCN2C)[C@@H](C)CC)NC(C)=O)n1 [#B18, 1,2-dimethyl-D-prolyl-N-[(1R,3R)-1-(acetylamino)-1-(4-{[(2R,4S)-5-ethoxy-4-methyl-5-oxo-1-phenylpentan-2-yl]carbamoyl}-1,3-thiazol-2-yl)-4-methylpentan-3-yl]-N-methyl-L-isoleucinamide] |  | > 100 | > 100 | > 100
CC[C@H](C)[C@H](NC(=O)[C@@]1(C)CCCN1C)C(=O)N(C)[C@H](C[C@@H](NC(C)=O)c1nc(C(=O)N[C@@H](Cc2ccc(N)cc2)C[C@H](C)C(=O)O)cs1)C(C)C [#B28, 1,2-dimethyl-D-prolyl-N-[(1R,3R)-1-(acetylamino)-1-(4-{[(2R,4S)-1-(4-aminophenyl)-4-carboxypentan-2-yl]carbamoyl}-1,3-thiazol-2-yl)-4-methylpentan-3-yl]-N-methyl-L-isoleucinamide] |  | > 100 | 81.5 | 74.9
